This passage reports viability results from article PMC12040169 (PLOS Biology, 2025).

Molecules are shown by their SMILES.

The first data set can be described thus: in vitro. The following applies: human, hela cells.
Consider `CC1CN(C(=O)Oc2ccccc2)C(C)CN1CCCC(c1ccc(F)cc1)c1ccc(F)cc1` (stereo not shown) [CBK024993C], for which the viability at 28.5 h, 10 µM was 87.4%.

Still in this data set, the particulars now being: human, hela cells, % viability.
Take `O=C1NC[C@@H](CCC(=O)N2CCCCC2)N2C[C@@H](NS(=O)(=O)c3ccccc3)C[C@@H]12` [CBK289012]: the viability at 28.5 h, 10 µM was determined as 92.9%.
Still for that read-out and setting: the figure for `Cc1ccc(-c2nnc(C3CCCN(C(=O)C4CC4)C3)o2)s1` (stereo not shown) [CBK285516] is 83.9%.
With `O=C(O)C1CCCN(C(=O)NCc2ccc3c(c2)OCO3)C1` (stereo not shown) [CBK161346], the viability at 28.5 h, 10 µM came to 93.4%.
`Cc1ncccc1Oc1ccc(NC(=O)N2CCc3ccccc3CC2)cn1` [CBK018383]: the viability at 28.5 h, 10 µM was 96.6%.
In the case of `CCN1C(=O)CC2(C1=O)C(=O)N(CCCOc1ccccc1OC)c1ccccc12` (stereo not shown) [CBK075498], the viability at 28.5 h, 10 µM was determined as 109%.
Turning to `Nc1ccc(Cc2ccc(N)c(C(=O)O)c2)cc1C(=O)O` [CBK261153], the viability at 28.5 h, 10 µM turned out to be 92.3%.
For the compound `O[C@H]1[C@H](NCc2ccccn2)[C@H]2CO[C@H](O2)[C@@H]1N1CCC(Cc2ccccc2)CC1` [CBK288814], the viability at 28.5 h, 10 µM stood at 87.2%.
On to `Cc1nc(CCNCc2c(C)nn(C)c2N2CCOCC2)cs1` [CBK304054], for which the viability at 28.5 h, 10 µM was found to be 101%.
Regarding `Cc1ccc(S(=O)(=O)n2ccc3ccc(N4CCN(C)CC4)nc32)cc1` [CBK063327], the viability at 28.5 h, 10 µM was determined as 84%.
On to `CN(C)CCNC(=O)c1cccc(-c2cncc(Nc3cccc(Cl)c3)n2)c1` [CBK065229], for which the viability at 28.5 h, 10 µM worked out at 104%.
Same read-out and setting: in the case of `CCOc1ccc(S(=O)(=O)N(C)CC(=O)N2CCN(C)CC2)cc1Cl` [CBK269865] it was 101%; in that of `CCOC(=O)C1(O)CCN(c2ccc(C#N)cc2F)CC1` [CBK304836], 94%.
Take `O=C(O)CCSC(CC(=O)c1ccccc1)c1ccc(Cl)cc1` (stereo not shown) [CBK077251]: the viability at 28.5 h, 10 µM was 97.3%.
With `O=C(Nc1ncc(Cc2ccc(F)cc2)s1)c1csc2c1CCCC2` [CBK300489], the viability at 28.5 h, 10 µM was 90.2%.
Same read-out and setting: in the case of `COc1ccnc(N2CCN(C(=O)c3cncnc3C)CC2)n1` [CBK304894] it was 104%; in that of `Cc1ccc(C2C(C(=O)c3cccs3)=C(O)C(=O)N2CCN2CCOCC2)o1` (stereo not shown) [CBK264559], 91.1%.
Regarding `Cc1cc(O)nc(C(C)N2CCOC(C(C)(C)C)C2)n1` (stereo not shown) [CBK304097], the viability at 28.5 h, 10 µM was found to be 104%.
As for `COc1cccc(/C=C/C2=NN(c3cccc(F)c3)C(c3cccc(OC)c3OC)C2)c1OC` (stereo not shown) [CBK260983], the viability at 28.5 h, 10 µM turned out to be 104%.
On the same count and under the same terms, the figure for `CN1CCC(N(C)S(=O)(=O)c2ccc(C(C)(C)C)cc2)C1` (stereo not shown) [CBK059036T] is 98.5%.
As to `O=C(Nc1c(F)cccc1F)N(Cc1ccc2ccccc2c1)CC1CCNCC1` [CBK119480], the viability at 28.5 h, 10 µM was 100%.
Regarding `COC(=O)NC(O)C(=O)c1cccs1` (stereo not shown) [CBK027755], the viability at 28.5 h, 10 µM is 93.8%.
On to `O=C(O)c1ccc(N2C(=O)CC(N3CCN(Cc4ccccc4)CC3)C2=O)cc1` (stereo not shown) [CBK261403], for which the viability at 28.5 h, 10 µM turned out to be 94.7%.
On to `CN(C)CCN(C)c1cncc(-c2ccc(F)cc2F)n1` [CBK065652], for which the viability at 28.5 h, 10 µM turned out to be 90.9%.
Still for that read-out and setting: the figure for `COc1cc([N+](=O)[O-])ccc1NC(=S)NCc1ccc(S(N)(=O)=O)cc1` [CBK267067] is 100%; for `NCC(NC(=O)c1cnc(-c2ccncc2)s1)C1CCCCC1` (stereo not shown) [CBK306502C] it is 104%; for `Cc1nnc(CCNC2CCN(c3ncnc4c(C)csc34)CC2)s1` [CBK307574] it is 84.9%.
Turning to `O=C(CNc1ccc2ccccc2c1)N/N=C/c1cc2c(cc1[N+](=O)[O-])OCO2` [CBK261126], the viability at 28.5 h, 10 µM is 83.1%.
On to `COCc1cccc(-c2nccnc2OCC(=O)OC)c1` [CBK106976], for which the viability at 28.5 h, 10 µM was 98.7%.
As to `CC(C)NC(=O)CCNc1ncc(C(N)=O)cc1Cl` [CBK306373], the viability at 28.5 h, 10 µM came to 92.9%.
Turning to `COc1ccc(CCN2CCCN(c3nccc(OCc4ccc(Cl)c(Cl)c4)n3)CC2)cc1OC` [CBK083965], the viability at 28.5 h, 10 µM amounted to 96.4%.
